Laboratory results reported in PubChem BioAssay (NCI).
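Interpolation was linear, between the two tested concentrations surrounding the appropriate level; five concentrations were tested over 48 hours in 96-well plates. At the TGI there is no net growth.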

Assays:
Test in all cases: DTP human tumour cell line panel, 48 h
HOP-62 NSCLC = tested on: HOP-62 NSCLC
SR leukemia = tested on: SR leukemia
SF-268 CNS = tested on: SF-268 CNS
HOP-92 NSCLC = tested on: HOP-92 NSCLC
NCI-H23 lung = tested on: NCI-H23 lung
A549 NSCLC = tested on: A549 NSCLC
SF-539 CNS = tested on: SF-539 CNS
RXF 393 renal = tested on: RXF 393 renal
U251 CNS = tested on: U251 CNS
EKVX NSCLC = tested on: EKVX NSCLC
SK-OV-3 ovarian = tested on: SK-OV-3 ovarian
DU-145 prostate = tested on: DU-145 prostate
OVCAR-4 ovarian = tested on: OVCAR-4 ovarian
SNB-19 CNS = tested on: SNB-19 CNS
KM12 colon = tested on: KM12 colon
SK-MEL-28 melanoma = tested on: SK-MEL-28 melanoma
HCT-116 colon = tested on: HCT-116 colon
IGROV1 ovarian = tested on: IGROV1 ovarian
MDA-MB-231 breast = tested on: MDA-MB-231 breast
OVCAR-5 ovarian = tested on: OVCAR-5 ovarian
OVCAR-3 ovarian = tested on: OVCAR-3 ovarian
MDA-MB-435 = tested on: MDA-MB-435
HCC-2998 colon = tested on: HCC-2998 colon
MCF7 breast = tested on: MCF7 breast
HCT-15 colon = tested on: HCT-15 colon
T-47D breast = tested on: T-47D breast
BT-549 breast = tested on: BT-549 breast
LOX IMVI melanoma = tested on: LOX IMVI melanoma
HS 578T breast = tested on: HS 578T breast
MOLT-4 leukemia = tested on: MOLT-4 leukemia
NCI/ADR-RES ovarian = tested on: NCI/ADR-RES ovarian
NCI-H522 lung = tested on: NCI-H522 lung
M14 melanoma = tested on: M14 melanoma
NCI-H226 lung = tested on: NCI-H226 lung
SK-MEL-2 melanoma = tested on: SK-MEL-2 melanoma
MALME-3M melanoma = tested on: MALME-3M melanoma
ACHN renal = tested on: ACHN renal
COLO 205 colon = tested on: COLO 205 colon
CAKI-1 renal = tested on: CAKI-1 renal
TK-10 renal = tested on: TK-10 renal
A498 renal = tested on: A498 renal
SNB-75 CNS = tested on: SNB-75 CNS
RPMI-8226 leukemia = tested on: RPMI-8226 leukemia
OVCAR-8 ovarian = tested on: OVCAR-8 ovarian
SW-620 colon = tested on: SW-620 colon
K-562 leukemia = tested on: K-562 leukemia
UO-31 renal = tested on: UO-31 renal
PC-3 prostate = tested on: PC-3 prostate
UACC-62 melanoma = tested on: UACC-62 melanoma
NCI-H460 lung = tested on: NCI-H460 lung
SF-295 CNS = tested on: SF-295 CNS
786-0 renal = tested on: 786-0 renal
HL-60(TB) leukemia = tested on: HL-60(TB) leukemia

Measured: TGI

COc1ccc(-c2cc(-c3ccc(Nc4ccnc5cc(Cl)ccc45)cc3)[nH]c(=O)c2C#N)cc1
> 100 µM: all assays above
